Experimental findings from PubChem BioAssay (NCI) are described below.

Test systems include SF-539 CNS; SK-OV-3 ovarian; SF-295 CNS; U251 CNS; TK-10 renal; NCI-H522 lung; HCC-2998 colon; SW-620 colon.
Common to all, as to experiment: DTP human tumour cell line panel, 48 h

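Method: 48-hour compound exposure of cells in 96-well plates, five concentrations, linear interpolation of endpoints. GI50 = concentration required for 50% inhibition of growth. TGI is the concentration that stops growth completely.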

For the compound `Nc1nc(N(Cc2ccccc2)c2ccccc2)c2cn[nH]c2n1`, the GI50 with SF-539 CNS is 2.95 µM; in the experiment on SK-OV-3 ovarian it was 3.73 µM; with SF-295 CNS, 2.87 µM; in the experiment on U251 CNS, 4.35 µM; in the experiment on TK-10 renal it was 4.72 µM; in the experiment on NCI-H522 lung, 2.62 µM. The GI50 was 6.41 µM in the experiment with HCC-2998 colon and 3.93 µM in the experiment with SW-620 colon. In addition, the TGI in the experiment with SF-539 CNS is greater than 100 µM; in the experiment with SK-OV-3 ovarian it was greater than 100 µM; in the experiment on SF-295 CNS, 62.4 µM; with U251 CNS, greater than 100 µM; in the experiment with TK-10 renal, greater than 100 µM; in the experiment on NCI-H522 lung, greater than 100 µM. Further, the TGI in the experiment with HCC-2998 colon and with SW-620 colon was greater than 100 µM in each case.

For `Nc1nc2c(nnn2C2CC(O)C(CO)O2)c(=O)[nH]1` (stereo unspecified), the GI50 is 3.12 µM in the experiment on SF-539 CNS; 0.937 µM in the experiment on SK-OV-3 ovarian; 2.54 µM in the experiment with SF-295 CNS; 9.66 µM in the experiment with U251 CNS; greater than 100 µM in the experiment with TK-10 renal; 3.81 µM in the experiment on NCI-H522 lung. Also, the GI50 in the experiment with HCC-2998 colon was 3.63 µM; in the experiment on SW-620 colon it was 3.74 µM. Further, the TGI in the experiment with SF-539 CNS was greater than 41 µM; in the experiment on SK-OV-3 ovarian it was greater than 23.4 µM; in the experiment on SF-295 CNS, greater than 56.3 µM; in the experiment with U251 CNS it was greater than 100 µM; in the experiment on TK-10 renal it was greater than 100 µM; in the experiment on NCI-H522 lung, greater than 100 µM. Besides, the TGI in the experiment on HCC-2998 colon was greater than 92 µM; in the experiment on SW-620 colon, greater than 100 µM.

Consider `COc1ccc(NC(=O)CC(=O)N/N=C/c2ccc(N(CCC#N)S(C)(=O)=O)cc2)cc1`, for which the TGI in the experiment on SF-539 CNS, in the experiment with SK-OV-3 ovarian, in the experiment on SF-295 CNS, with U251 CNS, with TK-10 renal and in the experiment with NCI-H522 lung was greater than 100 µM each time. For the same compound, the concentration for total growth inhibition (TGI) with HCC-2998 colon and with SW-620 colon was greater than 100 µM in each case.

Turning to `Cc1cc(Cl)cc2c1NC(=O)C2(O)CC(=O)c1ccco1` (stereo unspecified), the TGI in the experiment on SF-539 CNS, with SK-OV-3 ovarian, in the experiment on SF-295 CNS, with U251 CNS, in the experiment on TK-10 renal and in the experiment with NCI-H522 lung was greater than 100 µM throughout. For the same compound, the TGI in the experiment with HCC-2998 colon and in the experiment with SW-620 colon was greater than 100 µM throughout.

`NC1=NC(c2ccccc2)CC(c2cc(Cl)ccc2O)=N1` (stereo unspecified): the TGI in the experiment with SF-539 CNS was 28.5 µM; in the experiment on SK-OV-3 ovarian, 33 µM; in the experiment with SF-295 CNS, 31 µM; in the experiment with U251 CNS, 29.9 µM; in the experiment with TK-10 renal it was 40.5 µM; in the experiment with NCI-H522 lung, 29 µM. Moreover, the TGI is 29.4 µM with HCC-2998 colon and 27 µM with SW-620 colon.

`COc1ccc(-c2onc(N)c2-c2cc(OC)c3c(c2)OCO3)cc1`: the GI50 in the experiment with SF-539 CNS was 2.74 µM; in the experiment with SK-OV-3 ovarian, 3.79 µM; in the experiment on SF-295 CNS, 2.32 µM; with U251 CNS, 2.79 µM; in the experiment with TK-10 renal, 8.49 µM; in the experiment with NCI-H522 lung, 1.07 µM. The figures for the GI50 in the experiment with HCC-2998 colon and in the experiment on SW-620 colon were 3.7 µM and 0.598 µM, respectively. In addition, the TGI was 11.8 µM in the experiment on SF-539 CNS; 22.6 µM in the experiment on SK-OV-3 ovarian; greater than 100 µM in the experiment with SF-295 CNS; greater than 26.1 µM in the experiment with U251 CNS; greater than 100 µM in the experiment on TK-10 renal; 5.39 µM in the experiment on NCI-H522 lung. Also, the TGI with HCC-2998 colon was greater than 87.7 µM; in the experiment with SW-620 colon it was greater than 100 µM.

In the case of `C/C(O)=C(\N=O)C(=O)Nc1ccc(Cl)cc1Cl`, the TGI with SF-539 CNS, with SK-OV-3 ovarian, in the experiment on SF-295 CNS, in the experiment on U251 CNS, in the experiment on TK-10 renal and in the experiment with NCI-H522 lung was greater than 100 µM each time. For the same compound, the TGI in the experiment on HCC-2998 colon and with SW-620 colon was greater than 100 µM throughout.

`O=C(O)c1nn(-c2ccccc2-c2n[nH]c(=O)[nH]c2=O)c(=O)[nH]c1=O`: the TGI in the experiment on SF-539 CNS, in the experiment on SK-OV-3 ovarian, with SF-295 CNS, in the experiment with U251 CNS, in the experiment on TK-10 renal and with NCI-H522 lung was greater than 100 µM throughout. For the same compound, the TGI in the experiment on HCC-2998 colon and with SW-620 colon was greater than 100 µM in each case.

`COc1ccc2c(c1)C(=O)Cc1ccccc1CC2`: the TGI with SF-539 CNS, in the experiment on SK-OV-3 ovarian, in the experiment with SF-295 CNS, with U251 CNS, with TK-10 renal and with NCI-H522 lung was greater than 100 µM in each case. For the same compound, the TGI in the experiment on HCC-2998 colon and with SW-620 colon was greater than 100 µM throughout.

In the case of `CCN(CC)C(c1ccc(N(C)C)cc1)C(c1ccc(N(C)C)cc1)N(CC)CC` (stereo unspecified), the TGI in the experiment with SF-539 CNS is greater than 73 µM; in the experiment on SK-OV-3 ovarian, greater than 73 µM; in the experiment on SF-295 CNS, greater than 73 µM; in the experiment with U251 CNS, greater than 73 µM; with TK-10 renal, greater than 73 µM; with NCI-H522 lung, greater than 7.3 µM. Besides, the TGI in the experiment with HCC-2998 colon and with SW-620 colon was greater than 73 µM in each case.

Consider `O=C(O)CCNC1CCCCC1`, for which the GI50 in the experiment with SF-539 CNS, with SK-OV-3 ovarian, in the experiment with SF-295 CNS, with U251 CNS, in the experiment on TK-10 renal and with NCI-H522 lung was greater than 100 µM throughout. The GI50 in the experiment on HCC-2998 colon and in the experiment with SW-620 colon was greater than 100 µM each time. Also, the TGI in the experiment on SF-539 CNS, in the experiment on SK-OV-3 ovarian, in the experiment on SF-295 CNS, with U251 CNS, with TK-10 renal and in the experiment on NCI-H522 lung was greater than 100 µM each time. Also, the TGI with HCC-2998 colon and with SW-620 colon was greater than 100 µM throughout.

As for `CC[C@@]1(c2ccccc2)C2=C(CC(C)(C)CC2=O)Nc2[nH]ncc21`, the GI50 in the experiment on SF-539 CNS, in the experiment on SK-OV-3 ovarian, in the experiment with SF-295 CNS, in the experiment with U251 CNS, in the experiment with TK-10 renal and with NCI-H522 lung was greater than 100 µM in each case. Further, the GI50 in the experiment on HCC-2998 colon and with SW-620 colon was greater than 100 µM each time. In addition, the TGI with SF-539 CNS, in the experiment with SK-OV-3 ovarian, in the experiment with SF-295 CNS, in the experiment with U251 CNS, with TK-10 renal and in the experiment with NCI-H522 lung was greater than 100 µM each time. For the same compound, the total growth inhibition concentration (TGI) with HCC-2998 colon and in the experiment on SW-620 colon was greater than 100 µM in each case.

By GI50 is commonly meant the concentration giving 50% growth inhibition. Broadly, the TGI is the concentration giving total growth inhibition.
